Measurements taken from patent US5270041A, “Sterols, their fatty acid esters and glucosides; processes for their preparation; spontaneously dispersible agents containing these compounds, and their use for treatment of tumors” (Marigen S.A., priority 1989, dated 1993).

Experiments:
[1] = system: TSA: murine adenocarcinoma (spontaneous cancer of the breast); assay: In-vitro plaque assay of MARIGENOL microemulsions, greatest cytotoxic dilution, TSA; format: cell-based; conditions: cell line TSA; 5 h; microemulsion 0,1%
Description: A biological assay system using microtiter plates and serial dilutions has been developed Batches of 10^4 tumour cells per ml were set up in culture medium RPMI 1640 and […] with 10% of fetal calf serum (GIBCO); the cells are spread at a density low enough to enable them to grow during the assay in so-called non-confluent monolayers. Samples are added after 6-24 hours, with 100 μl per row, to which 100 μl of medium are added in the first well. Half of this mixture is withdrawn, transferred into the next well and again treated with 100 μl of medium, etc.
In the plaque assay, the samples are incubated at 37° C. for 3-5 days under 31/2% of CO2. They are then stained and fixed using 0.1% crystal violet (Fluka, Buchs) in a solution of 70% of methanol, 1% of formaldehyde and 29% water. The samples are evaluated under the microscope, magnification 300×. The greatest cytotoxic dilution is determined. The samples can also be evaluated quantitatively by means of scanning and absorption measurement in a spectrophotometer.

[2] = system: TSA adenocarcinoma; assay: In-vivo assay on mice, TSA tumour growth, MARIGENOL 0,1% microemulsions; set-up: species or system mice (Balb-c); key: + swelling; conditions: 0,1% microemulsion
Description: The in-vivo assays were carried out on female mice. Old Balb-c strain animals of 28-32 g body weight were used (Charles River, Milan). Used as comparison standards throughout was the spontaneous adenocarcinoma TSA, a murine tumour cell line which was provided regularly by Prof. Guido Forni, Istituto di Microbiologia, Universita degli Studi di Torino, Scuola di Medicina.
A series of groups of 5 test animals each were fed with ordinary test feed (NAFAG complete feed No. 850, from Nahr- und Futtermittel AG, Gossau).
14 days after the introduction (average latency period), the newly-formed tissue is palpitated; ditto after 21 and after 28 days, and in some cases 35, days. The mean of the length and width of the solid, distinct tumour mass under the skin is determined (postmortem recheck).
To test the activity of the preparations in live organisms, the remaining test animals receive a daily dose of 0.25 ml of a test preparation by tube, in addition to the ordinary test feed. After an adaptation period of 5-7 days, the tumour is introduced, likewise inguinally, with 80-100'000 TSA units, as for the controls. It takes in every single case, in the group and on repetition, thus permitting the statistical groups to be kept to a relatively low number.
The experimental set-up is the same as in the case of gavage. Instead of using a tube, the preparations to be tested are administered inguinally by injection (right flank, subcutaneously), at a rate of 0.25 ml 3 times per week.

With “β-SITOSTEROLUNDECENOATE [C 11:1-SITOSTEROL]” the “Active in dilution to 1:” value [1] was 40 1:.

For “stigmast-5-en 3-ol-dodecenoate [C 12:1-SITOSTEROL]”, the “Active in dilution to 1:” value [1] was 640 1:, the “Tumor mass Σ1/2 L + B” value ([2]; TSA after 14 days) was 1 mm and the “Tumor mass Σ1/2 L + B” value ([2]; TSA after 21 days) was 0 mm. The “Tumor mass Σ1/2 L + B” value ([2]; TSA after 28 days) was 2 mm.

`CCCCCCCCCCCCCCCC(=O)O[C@H]1CC[C@@]2(C)C(=CC[C@H]3[C@@H]4CC[C@H]([C@H](C)/C=C/[C@@H](CC)C(C)C)[C@@]4(C)CC[C@@H]32)C1` [C 16:0 STIGMASTEROL, STIGMASTEROL-PALMITATE] was tested, and the “Active in dilution to 1:” value [1] was 80 1:.

For “stigmasta-5,22-dien-3-ol-doiecenoate [Stigmasterol-dodecenoate]”, the “Tumor mass Σ1/2 L + B” value ([2]; TSA after 14 days) was 0 mm, the “Tumor mass Σ1/2 L + B” value ([2]; TSA after 21 days) was 0 mm and the “Tumor mass Σ1/2 L + B” value ([2]; TSA after 28 days) was 2 mm.

In the case of `CC/C=C\C/C=C\C/C=C\CCCCCCCC(=O)O[C@H]1CC[C@@]2(C)C(=CC[C@H]3[C@@H]4CC[C@H]([C@H](C)CC[C@@H](CC)C(C)C)[C@@]4(C)CC[C@@H]32)C1` [C 18:3-SITOSTEROL, stigmast-5-en-3-ol-9,12,15-octadecatrienoate], the “Tumor mass Σ1/2 L + B” value ([2]; TSA after 14 days) is reported as “+”, the “Tumor mass Σ1/2 L + B” value ([2]; TSA after 21 days) is reported as “+” and the “Tumor mass Σ1/2 L + B” value ([2]; TSA after 28 days) is reported as 1 mm.

`CCCCC/C=C\C/C=C\CCCCCCCC(=O)O[C@H]1CC[C@@]2(C)C(=CC[C@H]3[C@@H]4CC[C@H]([C@H](C)CC[C@@H](CC)C(C)C)[C@@]4(C)CC[C@@H]32)C1` [β-Sitosterol-linoleate, stigmast-5-en-3-ol-9,12-octadecadienoate] was tested, and the “Tumor mass Σ1/2 L + B” value ([2]; TSA after 14 days) was 0 mm, the “Tumor mass Σ1/2 L + B” value ([2]; TSA after 21 days) was “+” and the “Tumor mass Σ1/2 L + B” value ([2]; TSA after 28 days) was 1 mm.
